Literature values, collected in US12414981B2, “JNK inhibitors for use in treating and preventing neurodegenerative disorders” (Northwestern University, priority 2021, dated 2025).

Settings: in vivo

- crosses the blood-brain barrier: crosses the blood-brain barrier
SMILES: Oc1c2ccccc2c2c3c(cccc13)N=N2 [SP600125, anthra [1,9]pyrazol-6 (2H)-one]
